Legend:
Potassium Channel hERG = Potassium Channel hERG (Homo sapiens, UniProt Q12809)
Muscarinic M2 = molecular target: T1, Muscarinic M2 (Homo sapiens, UniProt P08172); experiment: Off-target screening (Eurofins Cerep), M2; format: binding
T1 construct: Eurofins Cerep SA (contract screening)

Opioid κ (KOP) = Opioid κ (KOP) (Rattus norvegicus, UniProt P34975); experiment: biochemical; format: binding
Serotonin channels 5-HT3 = molecular target: T2, Serotonin channels 5-HT3 (Homo sapiens, UniProt P46098); experiment: Off-target screening (Eurofins Cerep), 5-HT3; format: binding
T2 construct: Eurofins Cerep SA (contract screen)

Muscarinic M1 = molecular target: T3, Muscarinic M1 (Homo sapiens, UniProt P11229); experiment: biochemical; format: binding
T3 construct: Eurofins Cerep SA (contract screening)

[1] = molecular target: T4, lymphocyte-specific protein tyrosine kinase (LCK) (Homo sapiens, UniProt P06239); experiment: Off-target screening (Eurofins Cerep), Lck kinase; format: biochemical
T4 construct: Eurofins Cerep SA (contract screen)

Glutamate channels NMDA = Glutamate channels NMDA (Rattus norvegicus, UniProt Q00959); experiment: Off-target screening (Eurofins Cerep), NMDA; format: binding
PDE3A = molecular target: T5, PDE3A (Homo sapiens, UniProt Q14432); experiment: Off-target screening (Eurofins Cerep), PDE3A; format: biochemical
T5 construct: Eurofins Cerep SA (contract screen)

Cannabinoid CB2 = molecular target: T6, Cannabinoid CB2 (Homo sapiens, UniProt P34972); experiment: Off-target screening (Eurofins Cerep), CB2; format: binding
T6 construct: Eurofins Cerep SA (contract screening)

Dopamine transporter = molecular target: T7, Dopamine transporter (Homo sapiens, UniProt Q01959); experiment: Off-target screening (Eurofins Cerep), dopamine transporter; format: binding
T7 construct: Eurofins Cerep SA (contract screening)

cyclooxygenase-2 (COX-2) = molecular target: T8, cyclooxygenase-2 (COX-2) (Homo sapiens, UniProt P35354); experiment: Off-target screening (Eurofins Cerep), COX2; format: biochemical
T8 construct: Eurofins Cerep SA (contract screen)

Na+ channel (site 2) = experiment: Off-target screening (Eurofins Cerep), Na+ channel; format: binding
Source text: Off-target interactions are binding of tracers to other components on the cell surface than the actual target site. These non-specific interactions are often of low affinity and easily missed, but can have significant effects. We outsourced the screening for in vitro for off-target interactions of cRGD-ZW800-1 to Eurofins Cerep SA, Le bois l’Evêque, France. They assessed the percentage of inhibition of a reference compound in 44 selected targets, including G protein-coupled receptors (GPCRs), transporters, ion channels, nuclear receptors, kinases and other non-kinase enzymes. These targets were recommended by four major pharmaceutical companies. The complete list is included in Supplementary Table 1 of the Supplementary Data. Each assay was performed twice using 10 μM cRGD-ZW800-1 and a reference compound. Inhibition higher than 50% was considered to represent a significant effect of cRGD-ZW800-1. Results showing between 20% and 50% were considered weak to moderate effects, while lower than 20% was not considered significant and mostly attributable to variability of the signal around the control level.

HT-29 cells [2] = experiment: In vitro competition with unlabeled cRGD, HT-29; format: cell-based, human; settings: 500 nM cRGD-ZW800-1 + 500 nM unlabeled cRGD (1:1), 37°C, 2 h, vs cells without unlabeled cRGD, triplicate
Procedure: For in vitro competition, U-87 MG (αvβ3 and αvβ5 positive, αvβ6 negative) and HT-29 (αvβ3 negative, αvβ5 and αvβ6 positive) cells were plated in a 96-well plate at a density of ∼40,000 and ∼60,000 cells per well, respectively. Subsequently, 500 nM of cRGD-ZW800-1 was simultaneously added to the cells and incubated at 37°C for 2 h. At the same time, half of the cells were also incubated with 500 nM unlabeled (“cold”) cRGD.
Both the cells in the binding and the competition experiment were then washed twice and imaged with the Odyssey NIR scanner (LI-COR Biosciences, Lincoln, Nebraska: focus offset 3 mm; 800-nm channel). Next, cells were permeabilized with a 40/60 mixture of acetone and methanol followed by a washing step and a 5 min incubation with ToPro3 (1/2000, Invitrogen), a far red fluorescent dye (642/661nm). The wells were then washed and again imaged with the Odyssey scanner (focus offset 3 mm; 700-nm channel) to quantify the number of cells in each well. The experiments were performed in triplicate.

Serotonin 5-HT2A = molecular target: T9, Serotonin 5-HT2A (Homo sapiens, UniProt P28223); experiment: Off-target screening (Eurofins Cerep), 5-HT2A; format: binding
T9 construct: Eurofins Cerep SA (contract screening)

HT-29 tumors and organs = experiment: Ex vivo biodistribution, HT-29 model; format: in vivo, mice; settings: 24 h post injection
Procedure: After imaging, mice were sacrificed and OSC-19 and BxPC-3 tumors were quickly frozen in isopentane at -80°C for histological evaluation. Tissues were sectioned at 10 μm and fluorescence imaging was performed using fluorescence microscopy (Nikon eclipse e800, Nikon, Amsterdam, The Netherlands). All histologic sections were stained with standard hematoxylin-eosin stain (HE). Organs of mice with colorectal and pancreatic cancer were collected and imaged using the Pearl® to evaluate biodistribution.
Mice were administered with 0.25 (HT-29 model only), 1.0, 10, or 30 nmol cRGD-ZW800-1 to evaluate tumor signals, biodistribution, and to calculate TBRs (n = 3 per dose group). At 4 h (BxPC-3 model) and 24 h (HT-29 model) after injection, mice were fully dissected and fluorescence intensity of their organs was measured.
Mice bearing orthotopic OSC-19 tumors (n = 2) were administrated with 10 nmol cRGD-ZW800-1 and imaged at 4 h. Mice bearing orthotopic MCF-7 tumors (n = 2) were injected with 10 nmol cRGD-ZW800-1 and imaged at 0.5, 1, 2, 4, 6, 8, 24, and 48 h post injection. […] In vivo TBRs were calculated by dividing the mean fluorescence signals of tumors by the mean of surrounding tissue. Ex vivo organ-to-tumor ratios were calculated by dividing the fluorescence intensity of the organ by that of the tumor.

HT-29 cells [3] = experiment: Binding assay of cRGD-ZW800-1 on cells; format: cell-based, human
[4] = 10 μM cRGD-ZW800-1, format H, An, performed twice, read-out: % Inhibition of Control Specific Binding
[5] = 10 μM, mean of 2, read-out: % of Control Specific Binding Mean
[6] = read-out: % Inhibition of Control Specific Binding
[7] = read-out: % of Control Specific Binding Mean
[8] = 10 μM cRGD-ZW800-1, format H, performed twice, read-out: % Inhibition of Control Specific Binding
[9] = 10 μM cRGD-ZW800-1, format H, Ag, performed twice, read-out: % Inhibition of Control Specific Binding

Chain of Potassium Channel hERG (Q12809 whole entry): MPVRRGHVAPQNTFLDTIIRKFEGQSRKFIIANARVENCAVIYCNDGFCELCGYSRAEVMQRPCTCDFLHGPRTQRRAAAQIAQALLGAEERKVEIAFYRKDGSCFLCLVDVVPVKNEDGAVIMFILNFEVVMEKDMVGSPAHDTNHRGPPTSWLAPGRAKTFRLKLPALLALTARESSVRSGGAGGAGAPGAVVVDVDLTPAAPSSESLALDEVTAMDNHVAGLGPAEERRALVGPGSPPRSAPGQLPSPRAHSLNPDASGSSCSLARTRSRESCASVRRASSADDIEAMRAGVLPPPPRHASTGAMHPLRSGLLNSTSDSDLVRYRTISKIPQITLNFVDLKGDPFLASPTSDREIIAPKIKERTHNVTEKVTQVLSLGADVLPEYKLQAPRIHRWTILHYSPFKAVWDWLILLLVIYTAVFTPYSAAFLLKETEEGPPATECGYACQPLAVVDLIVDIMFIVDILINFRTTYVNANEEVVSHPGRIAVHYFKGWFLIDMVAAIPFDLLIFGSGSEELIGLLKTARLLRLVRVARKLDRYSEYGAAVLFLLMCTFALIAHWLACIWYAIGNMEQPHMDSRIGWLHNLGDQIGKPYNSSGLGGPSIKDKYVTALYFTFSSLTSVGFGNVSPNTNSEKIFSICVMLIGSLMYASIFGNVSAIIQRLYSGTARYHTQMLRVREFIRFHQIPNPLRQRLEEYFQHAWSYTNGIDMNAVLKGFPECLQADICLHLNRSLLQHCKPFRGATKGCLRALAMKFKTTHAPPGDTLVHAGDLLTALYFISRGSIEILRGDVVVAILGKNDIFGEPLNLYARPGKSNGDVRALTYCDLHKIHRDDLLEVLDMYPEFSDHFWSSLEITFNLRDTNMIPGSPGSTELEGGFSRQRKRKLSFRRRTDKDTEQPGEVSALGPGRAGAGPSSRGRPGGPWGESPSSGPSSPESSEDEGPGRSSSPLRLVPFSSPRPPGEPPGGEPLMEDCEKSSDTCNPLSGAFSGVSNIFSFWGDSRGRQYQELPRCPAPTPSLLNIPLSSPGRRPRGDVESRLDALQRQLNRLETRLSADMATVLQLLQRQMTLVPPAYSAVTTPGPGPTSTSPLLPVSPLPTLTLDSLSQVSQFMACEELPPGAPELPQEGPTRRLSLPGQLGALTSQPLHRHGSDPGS
T7 sequence (Q01959 whole entry): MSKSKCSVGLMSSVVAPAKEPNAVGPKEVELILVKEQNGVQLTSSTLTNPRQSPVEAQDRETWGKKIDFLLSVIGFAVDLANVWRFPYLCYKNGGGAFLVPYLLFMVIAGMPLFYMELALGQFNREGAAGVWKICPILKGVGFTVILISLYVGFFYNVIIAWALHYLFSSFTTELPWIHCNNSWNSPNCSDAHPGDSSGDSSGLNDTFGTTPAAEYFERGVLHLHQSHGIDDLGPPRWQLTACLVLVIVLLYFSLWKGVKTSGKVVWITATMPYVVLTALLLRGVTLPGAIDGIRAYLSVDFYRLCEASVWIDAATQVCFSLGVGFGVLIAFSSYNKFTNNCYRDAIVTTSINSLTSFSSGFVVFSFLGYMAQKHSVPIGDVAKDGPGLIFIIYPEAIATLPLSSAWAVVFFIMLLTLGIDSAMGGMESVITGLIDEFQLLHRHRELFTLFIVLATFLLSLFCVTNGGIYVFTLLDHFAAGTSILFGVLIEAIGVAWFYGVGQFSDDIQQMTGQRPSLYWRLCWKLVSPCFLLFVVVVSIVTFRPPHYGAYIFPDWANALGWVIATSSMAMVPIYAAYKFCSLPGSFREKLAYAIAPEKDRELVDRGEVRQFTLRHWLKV
T8 sequence (P35354 18-604): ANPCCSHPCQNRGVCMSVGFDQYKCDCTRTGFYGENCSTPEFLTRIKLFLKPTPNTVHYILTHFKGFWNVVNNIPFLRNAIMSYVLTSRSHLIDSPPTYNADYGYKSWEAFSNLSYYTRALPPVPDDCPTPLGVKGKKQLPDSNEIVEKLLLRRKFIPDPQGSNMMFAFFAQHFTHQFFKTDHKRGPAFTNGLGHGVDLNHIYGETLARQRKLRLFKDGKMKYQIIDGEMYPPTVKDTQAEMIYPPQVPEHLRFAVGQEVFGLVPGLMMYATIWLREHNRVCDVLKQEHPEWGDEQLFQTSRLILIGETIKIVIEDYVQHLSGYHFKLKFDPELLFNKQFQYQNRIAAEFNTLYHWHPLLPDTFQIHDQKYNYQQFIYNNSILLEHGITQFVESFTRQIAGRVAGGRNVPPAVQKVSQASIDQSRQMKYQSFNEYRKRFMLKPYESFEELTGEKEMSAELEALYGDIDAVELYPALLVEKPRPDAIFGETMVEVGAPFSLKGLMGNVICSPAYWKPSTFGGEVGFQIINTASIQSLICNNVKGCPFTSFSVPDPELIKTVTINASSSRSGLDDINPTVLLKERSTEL
Chain of Glutamate channels NMDA (Q00959 23-1464, other chains not shown): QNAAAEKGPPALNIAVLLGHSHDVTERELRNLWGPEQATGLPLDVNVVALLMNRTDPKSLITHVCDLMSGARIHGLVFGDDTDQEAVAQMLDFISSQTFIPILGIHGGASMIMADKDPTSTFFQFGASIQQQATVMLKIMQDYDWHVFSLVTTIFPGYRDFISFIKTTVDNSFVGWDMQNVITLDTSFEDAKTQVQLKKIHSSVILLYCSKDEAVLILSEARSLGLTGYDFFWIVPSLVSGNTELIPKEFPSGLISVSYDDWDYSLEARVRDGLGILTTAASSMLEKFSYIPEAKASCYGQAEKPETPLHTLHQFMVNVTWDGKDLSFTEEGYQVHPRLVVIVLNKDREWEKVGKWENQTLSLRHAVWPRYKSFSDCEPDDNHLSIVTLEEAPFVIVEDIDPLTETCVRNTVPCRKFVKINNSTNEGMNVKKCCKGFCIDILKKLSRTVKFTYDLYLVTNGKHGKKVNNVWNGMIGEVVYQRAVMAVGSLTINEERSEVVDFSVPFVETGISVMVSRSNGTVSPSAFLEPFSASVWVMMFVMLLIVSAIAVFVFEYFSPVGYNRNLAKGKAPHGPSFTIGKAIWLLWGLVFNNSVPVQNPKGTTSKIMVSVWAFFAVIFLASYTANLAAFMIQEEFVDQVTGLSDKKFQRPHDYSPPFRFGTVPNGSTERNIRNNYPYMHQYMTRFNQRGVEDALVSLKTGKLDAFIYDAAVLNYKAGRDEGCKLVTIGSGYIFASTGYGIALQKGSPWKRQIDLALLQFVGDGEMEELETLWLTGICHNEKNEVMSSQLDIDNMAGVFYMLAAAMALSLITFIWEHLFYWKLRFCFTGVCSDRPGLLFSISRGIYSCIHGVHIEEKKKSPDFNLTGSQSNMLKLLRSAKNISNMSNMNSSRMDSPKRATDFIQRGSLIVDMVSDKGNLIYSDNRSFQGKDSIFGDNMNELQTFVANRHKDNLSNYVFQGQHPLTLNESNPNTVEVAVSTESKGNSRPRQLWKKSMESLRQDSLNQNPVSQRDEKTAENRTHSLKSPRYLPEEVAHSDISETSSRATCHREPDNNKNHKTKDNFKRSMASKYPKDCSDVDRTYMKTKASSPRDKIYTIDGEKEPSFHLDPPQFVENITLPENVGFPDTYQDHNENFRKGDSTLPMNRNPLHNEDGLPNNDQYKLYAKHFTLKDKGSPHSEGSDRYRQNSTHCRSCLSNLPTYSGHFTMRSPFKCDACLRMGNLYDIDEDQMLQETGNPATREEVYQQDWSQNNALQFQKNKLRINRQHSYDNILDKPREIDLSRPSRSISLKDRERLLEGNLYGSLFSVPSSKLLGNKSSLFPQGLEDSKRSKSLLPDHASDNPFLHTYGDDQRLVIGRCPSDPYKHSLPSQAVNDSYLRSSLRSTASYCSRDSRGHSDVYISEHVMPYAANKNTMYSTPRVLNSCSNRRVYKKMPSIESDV
T9 sequence (P28223 whole entry): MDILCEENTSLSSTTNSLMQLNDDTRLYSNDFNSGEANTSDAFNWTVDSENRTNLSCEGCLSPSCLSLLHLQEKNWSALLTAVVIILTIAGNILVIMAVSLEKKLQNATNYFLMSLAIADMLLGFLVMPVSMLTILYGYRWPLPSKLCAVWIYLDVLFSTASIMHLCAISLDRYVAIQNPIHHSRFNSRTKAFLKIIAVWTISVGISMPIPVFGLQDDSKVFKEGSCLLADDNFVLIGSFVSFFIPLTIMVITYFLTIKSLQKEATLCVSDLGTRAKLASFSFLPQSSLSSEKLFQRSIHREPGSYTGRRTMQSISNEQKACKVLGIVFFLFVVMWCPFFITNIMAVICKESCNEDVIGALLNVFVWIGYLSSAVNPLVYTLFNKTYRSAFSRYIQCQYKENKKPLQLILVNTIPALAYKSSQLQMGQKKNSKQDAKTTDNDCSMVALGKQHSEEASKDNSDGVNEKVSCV
T3 sequence (P11229 whole entry): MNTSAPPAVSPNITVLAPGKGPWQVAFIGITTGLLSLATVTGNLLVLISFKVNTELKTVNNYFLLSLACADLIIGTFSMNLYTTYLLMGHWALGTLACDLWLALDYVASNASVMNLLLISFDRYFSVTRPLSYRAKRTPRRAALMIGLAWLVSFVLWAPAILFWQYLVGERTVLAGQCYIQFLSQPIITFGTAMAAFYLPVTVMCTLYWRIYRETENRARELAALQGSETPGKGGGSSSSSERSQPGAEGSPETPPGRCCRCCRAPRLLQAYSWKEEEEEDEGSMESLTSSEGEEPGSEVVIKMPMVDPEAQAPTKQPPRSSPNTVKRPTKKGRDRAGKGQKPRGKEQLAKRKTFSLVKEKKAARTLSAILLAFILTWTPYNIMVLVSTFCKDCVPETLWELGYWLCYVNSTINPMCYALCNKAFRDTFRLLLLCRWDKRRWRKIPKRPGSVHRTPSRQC

Question: Which “% Inhibition of Control Specific Binding” value (Potassium Channel hERG) does the source give for `CC1(C)C(/C=C/C2=C(Oc3ccc(CCC(=O)NCCCC[C@@H]4NC(=O)[C@@H](Cc5ccc(O)cc5)NC(=O)[C@H](CC(=O)O)NC(=O)CNC(=O)[C@H](CCCNC(=N)N)NC4=O)cc3)C(=C/C=C3/N(CCC[N+](C)(C)C)c4ccc(S(=O)(=O)O)cc4C3(C)C)/CCC2)=[N+](CCC[N+](C)(C)C)c2ccc(S(=O)(=O)O)cc21` [cRGD-ZW800-1] here?
Answer: Its value is -6%.

Question: And the “% of Control Specific Binding 1st” value (Potassium Channel hERG; 10 µM)?
Answer: The value was 106.4%.

Question: And the “% of Control Specific Binding 2nd” value (Potassium Channel hERG; 10 µM)?
Answer: Its value is 104.8%.

Question: What about the inhibition at 10 µM (Muscarinic M2; [4]) of the same compound?
Answer: The inhibition at 10 µM was -20%.

Question: And the remaining activity at 10 µM (Muscarinic M2; [5])?
Answer: Its remaining activity at 10 µM is 120%.

Question: And the inhibition at 10 µM (Opioid κ (KOP); [6])?
Answer: Its inhibition at 10 µM is 19%.

Question: And the remaining activity at 10 µM (Opioid κ (KOP); [7])?
Answer: Its remaining activity at 10 µM is 81.2%.

Question: What about the inhibition at 10 µM (Serotonin channels 5-HT3; [6]) of the same compound?
Answer: Its inhibition at 10 µM is 12%.

Question: What about the remaining activity at 10 µM (Serotonin channels 5-HT3; [7]) of the same compound?
Answer: Its remaining activity at 10 µM is 87.7%.

Question: And the inhibition at 10 µM (Muscarinic M1; [6])?
Answer: The inhibition at 10 µM was 5%.

Question: What about the remaining activity at 10 µM (Muscarinic M1; [7]) of the same compound?
Answer: The remaining activity at 10 µM was 95.5%.

Question: And the inhibition at 10 µM [1, 8]?
Answer: The inhibition at 10 µM was 28%.

Question: And the remaining activity at 10 µM [1, 5]?
Answer: Its remaining activity at 10 µM is 72.3%.

Question: What about the inhibition at 10 µM (Glutamate channels NMDA; [6]) of the same compound?
Answer: Its inhibition at 10 µM is 10%.

Question: What about the remaining activity at 10 µM (Glutamate channels NMDA; [7]) of the same compound?
Answer: Its remaining activity at 10 µM is 90.4%.

Question: And the inhibition at 10 µM (PDE3A; [8])?
Answer: Its inhibition at 10 µM is -12%.

Question: What about the remaining activity at 10 µM (PDE3A; [5]) of the same compound?
Answer: The remaining activity at 10 µM was 112%.

Question: What about the inhibition at 10 µM (Cannabinoid CB2; [9]) of the same compound?
Answer: The inhibition at 10 µM was -11%.

Question: And the remaining activity at 10 µM (Cannabinoid CB2; [5])?
Answer: The remaining activity at 10 µM was 111%.

Question: And the inhibition at 10 µM (Dopamine transporter; [4])?
Answer: The inhibition at 10 µM was 5%.

Question: What about the remaining activity at 10 µM (Dopamine transporter; [5]) of the same compound?
Answer: Its remaining activity at 10 µM is 95%.

Question: And the inhibition at 10 µM (cyclooxygenase-2 (COX-2); [8])?
Answer: The inhibition at 10 µM was 62%.

Question: And the remaining activity at 10 µM (cyclooxygenase-2 (COX-2); [5])?
Answer: The remaining activity at 10 µM was 38%.

Question: And the “% Inhibition of Control Specific Binding” value (Na+ channel (site 2); 10 μM cRGD-ZW800-1, format An, performed twice)?
Answer: Its value is 20%.

Question: And the “% of Control Specific Binding Mean” value (Na+ channel (site 2); 10 μM, mean of 2)?
Answer: Its value is 79.9%.

Question: And the “reduction of fluorescence signal by unlabeled cRGD” value (HT-29 cells [2])?
Answer: Its value is 32%.

Question: And the inhibition at 10 µM (Serotonin 5-HT2A; [9])?
Answer: The inhibition at 10 µM was -9%.

Question: And the remaining activity at 10 µM (Serotonin 5-HT2A; [5])?
Answer: The remaining activity at 10 µM was 109%.

Question: What about the “fluorescence signal in kidneys (all dose groups), liver and skin (only 10 and 30 nmol) compared to tumor” value (HT-29 tumors and organs) of the same compound?
Answer: The value was “higher”.

Question: And the “tumor fluorescence relative to lungs, pancreas, muscle, gallbladder, brain, and blood” value (HT-29 tumors and organs; all dose groups)?
Answer: The value was “more than twice as fluorescent”.

Question: And the “fluorescence intensity with increasing concentrations” value (HT-29 cells [3]; 0, 125, 250, 500, 1000 nM, 1 h, Odyssey NIR scanner 800-nm channel, triplicate)?
Answer: Its value is “almost linear increase”.

Question: And the “fluorescence signals at 4°C compared to 37°C” value (HT-29 cells [3]; incubated at 4°C, which prevents internalization, p < 0.0001)?
Answer: The value was “Significantly lower signals”.
